# Patent publication US6737383B1, “Herbicidal oxadiazolidines” (priority 1999, dated 2004)
# How the values were obtained:
# [1] = system: bamyardgrass; test: Test B flood test barnyardgrass; assay type: in vivo, Echinochloa crus-galli
# How it was run: (§1)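 Read-out is a visual response score from 0 (no effect) to 10 (complete control), assigned by comparison with untreated controls. Treatment was applied at the 2-leaf stage, and plants stayed in the greenhouse for twelve to sixteen days before scoring.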
# [2] = system: corn; test: Test B pre/postemergence corn; assay type: in vivo, Zea mays
# How it was run: (§2)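 Response is a visual 0-to-10 score relative to untreated plants, where 0 means no effect and 10 means complete control, taken twelve to sixteen days after application. Treatments went onto soil at planting and onto foliage of 1- to 4-leaf plants, using a surfactant-containing non-phytotoxic solvent.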
# [3] = system: rice; test: Test B flood test rice; assay type: in vivo, Oryza sativa
# How it was run: as §1
# [4] = system: blackgrass; test: Test B pre/postemergence blackgrass; assay type: in vivo, Alopecurus myosuroides
# How it was run: as §2
# [5] = system: sugar beet; test: Test B pre/postemergence sugar beet; assay type: in vivo, Beta vulgaris
# How it was run: as §2
# [6] = system: soybean; test: Test B pre/postemergence soybean; assay type: in vivo, Glycine max
# How it was run: as §2
# [7] = system: surinam grass; test: Test B pre/postemergence surinam grass; assay type: in vivo, Brachiaria decumbens
# How it was run: as §2
# [8] = system: velvetleaf; test: Test B pre/postemergence velvetleaf; assay type: in vivo, Abutilon theophrasti
# How it was run: as §2
# [9] = system: purple nutsedge; test: Test B pre/postemergence purple nutsedge; assay type: in vivo, Cyperus rotundus
# How it was run: as §2
# [10] = system: cocklebur; test: Test B pre/postemergence cocklebur; assay type: in vivo, Xanthium strumarium
# How it was run: as §2
# [11] = system: bedstraw; test: Test B pre/postemergence bedstraw; assay type: in vivo, Galium aparine
# How it was run: as §2
# [12] = system: wild oat; test: Test B pre/postemergence wild oat; assay type: in vivo, Avena fatua
# How it was run: as §2
# [13] = system: pigweed; test: Test B pre/postemergence pigweed; assay type: in vivo, Amaranthus retroflexus
# How it was run: as §2
# [14] = system: smallflower flatsedge; test: Test B flood test smallflower flatsedge; assay type: in vivo, Cyperus difformis
# How it was run: as §1
# [15] = system: morningglory; test: Test B pre/postemergence morningglory; assay type: in vivo, Ipomoea hederacea
# How it was run: as §2
# [16] = system: rape; test: Test B pre/postemergence rape; assay type: in vivo, Brassica napus
# How it was run: as §2
# [17] = Rate 62 g/ha, headed Pre-emergence (flood test species), scale 0 to 10 (0 no effect, 10 complete control)
# [18] = Rate 125 g/ha, Pre-emergence, flood test species, scale 0 to 10 where 0 is no effect and 10 is complete control
# [19] = Rate 250 g/ha, Pre-emergence, flood-test species, scale 0 to 10, 0 is no effect, 10 is complete control
# [20] = Rate 500 g/ha, Pre-emergence, flood test species, scale 0 to 10 (0 no effect, 10 complete control)
# [21] = Preemergence, Rate 62 g/ha, scale of 0 to 10 where 0 is no effect and 10 is complete control
# [22] = Preemergence, Rate 250 g/ha, scale of 0 to 10 where 0 is no effect and 10 is complete control
# [23] = Preemergence, Rate 500 g/ha, scale of 0 to 10 where 0 is no effect and 10 is complete control
# [24] = Rate 62 g/ha, Postemergence, scale 0 to 10, 0 no effect, 10 complete control
# [25] = Rate 125 g/ha, Postemergence, scale of 0 to 10 where 0 is no effect and 10 is complete control
# [26] = Rate 125 g/ha, Preemergence, scale of 0 to 10 where 0 is no effect and 10 is complete control
# [27] = Rate 250 g/ha, Postemergence, scale of 0 to 10 where 0 is no effect and 10 is complete control
# [28] = Rate 500 g/ha, Postemergence, scale 0 to 10, 0 no effect, 10 complete control
smiles,measurement,setting,value
CC(C)N(C(=O)n1oc(=O)n(C2CCCC2)c1=O)c1ccc(Cl)cc1 [Compound 282],Barnyardgrass plant response rating,[1]; [17],7
same,Barnyardgrass plant response rating,[1]; [18],7
same,Barnyardgrass plant response rating,[1]; [19],9
same,Barnyardgrass plant response rating,[1]; [20],9
same,Corn plant response rating,[2]; [21],0
same,Corn plant response rating,[2]; [22],0
same,"Plant response rating, Corn",[2]; [23],0
same,Corn plant response rating,[2]; [24],0
same,Corn plant response rating,[2]; [25],0
same,Corn plant response rating,[2]; [26],0
same,"Plant response rating, Corn",[2]; [27],0
same,Corn plant response rating,[2]; [28],0
same,Rice plant response rating,[3]; [17],0
same,Rice plant response rating,[3]; [18],0
same,Rice plant response rating,[3]; [19],0
same,Rice plant response rating,[3]; [20],0
same,Blackgrass plant response rating,[4]; [21],0
same,Blackgrass plant response rating,[4]; [22],4
same,"Plant response rating, Blackgrass",[4]; [23],8
same,Blackgrass plant response rating,[4]; [24],0
same,Blackgrass plant response rating,[4]; [25],2
same,Blackgrass plant response rating,[4]; [26],1
same,"Plant response rating, Blackgrass",[4]; [27],5
same,Blackgrass plant response rating,[4]; [28],8
same,Sugarbeets plant response rating,[5]; [21],0
same,Sugarbeets plant response rating,[5]; [22],0
same,"Plant response rating, Sugarbeets",[5]; [23],3
same,Sugarbeets plant response rating,[5]; [24],2
same,Sugarbeets plant response rating,[5]; [25],6
same,Sugarbeets plant response rating,[5]; [26],0
same,"Plant response rating, Sugarbeets",[5]; [27],7
same,Sugarbeets plant response rating,[5]; [28],7
same,Soybean plant response rating,[6]; [21],0
same,Soybean plant response rating,[6]; [22],0
same,"Plant response rating, Soybean",[6]; [23],0
same,Soybean plant response rating,[6]; [24],3
same,Soybean plant response rating,[6]; [25],3
same,Soybean plant response rating,[6]; [26],0
same,"Plant response rating, Soybean",[6]; [27],4
same,Soybean plant response rating,[6]; [28],4
same,B. signalgrass plant response rating,[7]; [21],0
same,B. signalgrass plant response rating,[7]; [22],2
same,"Plant response rating, B. signalgrass",[7]; [23],7
same,B. signalgrass plant response rating,[7]; [24],0
same,B. signalgrass plant response rating,[7]; [25],0
same,B. signalgrass plant response rating,[7]; [26],1
same,"Plant response rating, B. signalgrass",[7]; [27],0
same,B. signalgrass plant response rating,[7]; [28],2
same,Velvetleaf plant response rating,[8]; [21],0
same,Velvetleaf plant response rating,[8]; [22],0
same,"Plant response rating, Velvetleaf",[8]; [23],0
same,Velvetleaf plant response rating,[8]; [24],0
same,Velvetleaf plant response rating,[8]; [25],0
same,Velvetleaf plant response rating,[8]; [26],0
same,"Plant response rating, Velvetleaf",[8]; [27],3
same,Velvetleaf plant response rating,[8]; [28],3
same,Nutsedge plant response rating,[9]; [21],0
same,Nutsedge plant response rating,[9]; [22],0
same,Nutsedge plant response rating,[9]; [24],0
same,Nutsedge plant response rating,[9]; [25],0
same,Nutsedge plant response rating,[9]; [26],0
same,"Plant response rating, Nutsedge",[9]; [27],0
same,Nutsedge plant response rating,[9]; [28],0
same,"Plant response rating, Cocklebur",[10]; [23],0
same,Cocklebur plant response rating,[10]; [24],0
same,Cocklebur plant response rating,[10]; [25],0
same,Cocklebur plant response rating,[10]; [26],0
same,"Plant response rating, Cocklebur",[10]; [27],2
same,Cocklebur plant response rating,[10]; [28],2
same,Bedstraw plant response rating,[11]; [21],0
same,Bedstraw plant response rating,[11]; [22],2
same,"Plant response rating, Bedstraw",[11]; [23],2
same,Bedstraw plant response rating,[11]; [24],5
same,Bedstraw plant response rating,[11]; [25],5
same,"Plant response rating, Bedstraw",[11]; [27],7
same,Bedstraw plant response rating,[11]; [28],8
same,Wild oats plant response rating,[12]; [21],0
same,Wild oats plant response rating,[12]; [22],5
same,"Plant response rating, Wild oats",[12]; [23],7
same,Wild oats plant response rating,[12]; [24],0
same,Wild oats plant response rating,[12]; [25],0
same,"Plant response rating, Wild oats",[12]; [27],0
same,Wild oats plant response rating,[12]; [28],0
same,Redroot pigweed plant response rating,[13]; [21],1
same,Redroot pigweed plant response rating,[13]; [22],7
same,"Plant response rating, Redroot pigweed",[13]; [23],9
same,Redroot pigweed plant response rating,[13]; [24],4
same,Redroot pigweed plant response rating,[13]; [25],6
same,Redroot pigweed plant response rating,[13]; [26],6
same,"Plant response rating, Redroot pigweed",[13]; [27],7
same,Redroot pigweed plant response rating,[13]; [28],8
same,S. Flatsedge plant response rating,[14]; [17],0
same,S. Flatsedge plant response rating,[14]; [18],0
same,S. Flatsedge plant response rating,[14]; [19],2
same,S. Flatsedge plant response rating,[14]; [20],4
same,Morningglory plant response rating,[15]; [21],0
same,Morningglory plant response rating,[15]; [22],0
same,"Plant response rating, Morningglory",[15]; [23],0
same,Morningglory plant response rating,[15]; [24],6
same,Morningglory plant response rating,[15]; [25],6
same,Morningglory plant response rating,[15]; [26],0
same,"Plant response rating, Morningglory",[15]; [27],7
same,Morningglory plant response rating,[15]; [28],9
same,Rape plant response rating,[16]; [21],0
same,Rape plant response rating,[16]; [22],7
same,"Plant response rating, Rape",[16]; [23],2
same,Rape plant response rating,[16]; [24],2
same,Rape plant response rating,[16]; [25],3
same,Rape plant response rating,[16]; [26],0
same,"Plant response rating, Rape",[16]; [27],6
same,Rape plant response rating,[16]; [28],8
